Our source for the IC50 values is patent US20260102501A1, “ANTI-CANCER NUCLEAR HORMONE RECEPTOR-TARGETING COMPOUNDS” (Nuvation Bio Inc., priority 2022, published 2026).

Residue numbers refer to the chain shown, from its start. Where a name gives a salt, the structure may show the parent alone. Read-outs that look alike come from different tables or passages of the source.

One experiment has as its system LNCap cells. Description: Cell viability assay (CellTiterGlo). The experiment is classed as cell-based. The settings on record: Homo sapiens, 144 h.
A further experiment deals with 22Rv1 cells. The experiment can be described thus: Cell viability assay (CellTiterGlo). The settings on record: Homo sapiens, 22Rv1, 144 h, read-out: 22RV1 (IC50, nM). In general terms: ATP-based viability assays read luminescence as a measure of living cells.
Experiment [1] concerns the target T1, AR (cytosol from LnCaP cells) (Homo sapiens, UniProt P10275, T878A).
T1 sequence (P10275 1-920 T878A): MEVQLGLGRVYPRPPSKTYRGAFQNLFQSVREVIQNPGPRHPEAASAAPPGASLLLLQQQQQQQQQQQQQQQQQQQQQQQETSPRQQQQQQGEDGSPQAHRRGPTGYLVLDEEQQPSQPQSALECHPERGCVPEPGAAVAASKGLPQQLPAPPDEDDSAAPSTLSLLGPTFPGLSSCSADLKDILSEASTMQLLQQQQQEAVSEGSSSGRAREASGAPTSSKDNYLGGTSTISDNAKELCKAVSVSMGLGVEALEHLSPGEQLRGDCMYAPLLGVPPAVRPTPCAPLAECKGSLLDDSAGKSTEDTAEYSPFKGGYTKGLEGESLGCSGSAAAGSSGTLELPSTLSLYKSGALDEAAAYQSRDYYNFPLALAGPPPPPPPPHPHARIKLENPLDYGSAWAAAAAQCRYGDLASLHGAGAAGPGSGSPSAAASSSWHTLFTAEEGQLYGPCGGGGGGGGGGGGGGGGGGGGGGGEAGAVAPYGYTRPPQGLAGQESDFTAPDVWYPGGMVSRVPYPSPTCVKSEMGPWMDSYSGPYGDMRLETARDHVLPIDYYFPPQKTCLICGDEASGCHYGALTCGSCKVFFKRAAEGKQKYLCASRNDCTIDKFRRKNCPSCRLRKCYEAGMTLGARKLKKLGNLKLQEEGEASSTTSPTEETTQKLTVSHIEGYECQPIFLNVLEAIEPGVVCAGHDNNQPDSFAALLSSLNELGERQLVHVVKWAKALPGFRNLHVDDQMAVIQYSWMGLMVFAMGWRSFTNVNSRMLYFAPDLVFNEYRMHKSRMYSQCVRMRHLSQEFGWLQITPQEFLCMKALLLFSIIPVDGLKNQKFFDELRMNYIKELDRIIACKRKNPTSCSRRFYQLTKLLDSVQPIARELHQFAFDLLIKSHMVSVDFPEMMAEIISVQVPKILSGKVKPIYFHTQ
The experiment can be described thus: AR binding assay (3H-R1881 displacement).
Description: The plate was then centrifuged at 3000 rpm for 30 minutes at 4° C.

The target of experiment [2] is T2, full-length androgen receptor (HEK293 cells stably expressing) (Homo sapiens, UniProt P10275).
T2 sequence (P10275 1-920): T1 sequence (P10275 1-920 T878A) with A878T
Description: AR antagonism assay (luciferase reporter). (In a reporter assay the amount or activity of a reporter protein is the signal.)
Description: AR antagonism assay: To evaluate AR antagonist activity, test compound was added to the assay plate (top dose 10 μM, 3 fold serial dilution, 10 point dose response). HEK293 cells stably expressing the full-length androgen receptor were seeded at a density of 20000 cells/well in the assay plate. The assay plate was then incubated at room temperature for 10 minutes and at 37° C. 5% CO2 for 20 minutes. Testosterone was added to the assay plate at 1 nM final concentration and the assay plate incubated at 37° C., 5% CO2 for 20 h. […] Steady-glo was added to the assay plate and mixed at room temperature for 20 minutes on an orbital shaker, before reading out on the En Vision plate reader.

The target in experiment [3] is T3, ligand binding domain of the glucocorticoid receptor (HEK293 cells stably expressing) (Homo sapiens, UniProt P04150).
T3 sequence (P04150 524-758 limits assumed): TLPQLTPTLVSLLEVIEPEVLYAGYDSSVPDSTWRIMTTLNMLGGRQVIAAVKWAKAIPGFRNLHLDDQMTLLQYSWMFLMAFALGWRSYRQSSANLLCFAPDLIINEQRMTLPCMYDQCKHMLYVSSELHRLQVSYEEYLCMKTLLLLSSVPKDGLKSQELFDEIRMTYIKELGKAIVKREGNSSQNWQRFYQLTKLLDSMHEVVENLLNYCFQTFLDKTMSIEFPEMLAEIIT
Description: GR antagonism assay (luciferase reporter).

Experiment [4] has as its target T4, GR (cytosol from IM-9 cells) (Homo sapiens, UniProt P04150).
T4 sequence (P04150 1-777): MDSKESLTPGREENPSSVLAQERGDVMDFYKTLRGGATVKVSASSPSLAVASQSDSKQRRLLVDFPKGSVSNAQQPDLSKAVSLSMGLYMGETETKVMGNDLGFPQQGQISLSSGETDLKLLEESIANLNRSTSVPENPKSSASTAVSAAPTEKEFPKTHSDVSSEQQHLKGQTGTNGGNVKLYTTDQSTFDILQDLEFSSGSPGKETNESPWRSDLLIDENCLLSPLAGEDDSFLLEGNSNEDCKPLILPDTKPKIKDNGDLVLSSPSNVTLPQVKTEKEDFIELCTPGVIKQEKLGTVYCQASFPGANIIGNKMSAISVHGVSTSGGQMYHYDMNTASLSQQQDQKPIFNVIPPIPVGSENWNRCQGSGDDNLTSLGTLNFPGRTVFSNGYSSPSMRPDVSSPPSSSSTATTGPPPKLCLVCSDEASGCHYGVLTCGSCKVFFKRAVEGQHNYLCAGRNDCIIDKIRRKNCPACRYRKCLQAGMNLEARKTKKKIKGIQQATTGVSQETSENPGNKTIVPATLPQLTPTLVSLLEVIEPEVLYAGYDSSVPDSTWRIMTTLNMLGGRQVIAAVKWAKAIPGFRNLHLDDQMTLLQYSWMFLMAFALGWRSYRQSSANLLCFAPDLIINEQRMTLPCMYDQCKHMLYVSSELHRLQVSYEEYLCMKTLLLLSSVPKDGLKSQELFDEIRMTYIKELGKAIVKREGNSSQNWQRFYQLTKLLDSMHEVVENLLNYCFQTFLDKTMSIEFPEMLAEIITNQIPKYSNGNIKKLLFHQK
The experiment can be described thus: GR binding assay (3H-Dexamethasone displacement).

In a further experiment the test system is IEC6 cells. Description: Cell viability assay (CellTiterGlo). The settings on record: Rattus norvegicus, IEC-6, 144 h, read-out: IEC-6 (IC50, nM).
The mark [5] stands for this setting: 6 days incubation, CellTiterGlo, read-out: LNCap (IC50).

In the case of `CC[C@@]1(O)C(=O)OCc2c1cc1n(c2=O)Cc2cc3c(CN(C)C)c(OC(=O)N4CCN(CCCCCCN(C)C5CCN(c6ccc(C(=O)N[C@H]7CC[C@H](Oc8ccc(C#N)c(Cl)c8C)CC7)nn6)CC5)CC4)ccc3nc2-1` [Compound No. 22, (S)-10-((Dimethylamino)methyl)-4-ethyl-4-hydroxy-3,14-dioxo-3,4,12,14-tetrahydro-1H-pyrano[3′,4′:6,7]indolizino[1,2-b]quinolin-9-yl 4-(6-((1-(6-(((1r,4r)-4-(3-chloro-4-cyano-2-methylphenoxy)-cyclohexyl)carbamoyl)pyridazin-3-yl)piperidin-4-yl)(methyl)amino)hexyl)piperazine-1-carboxylate Formate], the IC50 in the experiment on LNCap cells (read-out: LNCap (IC50, nM)) was 10 to 100 nM; in the experiment with 22Rv1 cells, 101 to 1000 nM; in experiment [1], under 0.01 µM; in experiment [2] it was 0.101 to 1 µM; in experiment [3], 0.101 to 1 µM; in experiment [4] it was 0.101 to 1 µM.
On to `CC[C@@]1(O)C(=O)OCc2c1cc1n(c2=O)Cc2cc3c(CN(C)C)c(OC(=O)N4CCN(CCCCCCO[C@H]5CC[C@H]6[C@@H]7CCC8=CC(=O)CCC8=C7CC[C@]56C)CC4)ccc3nc2-1` [Compound 45, (S)-10-((dimethylamino)methyl)-4-ethyl-4-hydroxy-3,14-dioxo-3,4,12,14-tetrahydro-1H-pyrano[3′,4′:6,7]indolizino[1,2-b]quinolin-9-yl 4-(6-(((8S,13S,14S,17S)-13-methyl-3-oxo-2,3,6,7,8,11,12,13,14,15,16,17-dodecahydro-1H-cyclopenta[a]phenanthren-17-yl)oxy)hexyl)piperazine-1-carboxylate], for which the IC50 with LNCap cells (read-out: LNCap (IC50, nM)) fell in the range of 10 to 100 nM; in the experiment on 22Rv1 cells, 10 to 100 nM; in the experiment with IEC6 cells, 101 to 1000 nM; in experiment [1], 0.01 to 0.1 µM; in experiment [2] it was 0.101 to 1 µM.
As for `CC[C@@]1(O)C(=O)OCc2c1cc1n(c2=O)Cc2cc3c(CN4CCN(C(=O)CCCCCC5CCN(c6ccc(C(=O)N[C@H]7CC[C@H](Oc8ccc(C#N)c(Cl)c8C)CC7)nn6)CC5)CC4)c(O)ccc3nc2-1` [Compound No. 50], the IC50 is 10 to 100 nM in the experiment with LNCap cells (setting [5]); 10 to 100 nM in the experiment with 22Rv1 cells; 101 to 1000 nM in the experiment with IEC6 cells; 0.01 to 0.1 µM in experiment [1]; over 1 µM in experiment [2].
In the case of `CC[C@@]1(O)C(=O)OCc2c1cc1n(c2=O)Cc2cc3c(CN4CCN(C(=O)CCCCCC5CCN(c6ccc(C(=O)N[C@H]7CC[C@H](N(C)c8ccc(C#N)c(Cl)c8)CC7)nn6)CC5)CC4)c(O)ccc3nc2-1` [Compound No. 49], the IC50 with LNCap cells (setting [5]) was 10 to 100 nM; with 22Rv1 cells, 10 to 100 nM; in the experiment with IEC6 cells, over 1000 nM; in experiment [1], 0.01 to 0.1 µM; in experiment [2] it was over 1 µM.
Turning to `CC[C@@]1(O)C(=O)OCc2c1cc1n(c2=O)Cc2cc3c(CN(C)C)c(OC(=O)N4C[C@H](C)N(CC5CCN(c6ccc(C(=O)N[C@H]7CC[C@H](Oc8ccc(C#N)c(Cl)c8C)CC7)nn6)CC5)C[C@H]4C)ccc3nc2-1` [Compound 32, (S)-10-((Dimethylamino)methyl)-4-ethyl-4-hydroxy-3,14-dioxo-3,4,12,14-tetrahydro-1H-pyrano[3′,4′:6,7]indolizino[1,2-b]quinolin-9-yl (2R,5S)-4-((1-(6-(((1r,4r)-4-(3-Chloro-4-cyano-2-methylphenoxy)cyclohexyl)carbamoyl)pyridazin-3-yl)piperidin-4-yl)methyl)-2,5-dimethylpiperazine-1-carboxylate Formate], the 50% inhibitory concentration (IC50) in the experiment on LNCap cells (read-out: LNCap (IC50, nM)) is 101 to 1000 nM; with 22Rv1 cells, 101 to 1000 nM; with IEC6 cells, over 1000 nM; in experiment [1], 0.101 to 1 µM; in experiment [2], 0.101 to 1 µM.
Consider `CC[C@@]1(O)C(=O)OCc2c1cc1n(c2=O)Cc2cc3c(CN(C)C)c(OC(=O)N4C[C@H](C)N(CC5CCN(c6ccc(C(=O)N[C@H]7CC[C@H](N(C)c8ccc(C#N)c(Cl)c8)CC7)nn6)CC5)C[C@H]4C)ccc3nc2-1` [Compound No. 20, (S)-10-((Dimethylamino)methyl)-4-ethyl-4-hydroxy-3,14-dioxo-3,4,12,14-tetrahydro-1H-pyrano[3′,4′:6,7]indolizino[1,2-b]quinolin-9-yl (2R,5S)-4-((1-(6-(((1r,4r)-4-((3-chloro-4-cyanophenyl)-(methyl)amino)cyclohexyl)carbamoyl)pyridazin-3-yl)piperidin-4-yl)methyl)-2,5-dimethylpiperazine-1-carboxylate], for which the 50% inhibitory concentration (IC50) with LNCap cells (read-out: LNCap (IC50, nM)) is 101 to 1000 nM; with 22Rv1 cells it was 101 to 1000 nM; with IEC6 cells, over 1000 nM; in experiment [1], 0.01 to 0.1 µM; in experiment [2], over 1 µM.

For orientation: IC50 means the midpoint of a concentration-inhibition curve.
